According to US20200038415A1, “AMINOSTEROL COMPOSITIONS AND METHODS OF USING THE SAME FOR TREATING ERECTILE DYSFUNCTION” (Enterin, Inc., priority 2018, published 2020):

How the values were obtained:
[1] = in vivo; cited from earlier work
[2] = Pharmacokinetics of orally administered squalamine (ENT-01) in Stage 1; type: in vivo, human; conditions: oral, active zwitterion
Experimental: PK data were collected on the 10 patients enrolled in Stage 1 and 10 patients enrolled in Stage 2 to determine the extent of systemic absorption. In Stage 1, PK data were obtained at each visit, pre-medication, at 1, 2, 4, 8 and 24 hours (Table 10). In Stage 2, PK was measured on days 1 and 6 of the randomization period pre-medication, at 1, 2, 4 and 8 hours (Table 11).
The mean Cmax, Tmax and T1/2 and AUC of the squalamine ion following squalamine (ENT-01) oral dosing for Stage 1 patients. The PK analyses are only approximate, as the lower limit of the validated concentration range was 10 ng/ml; most of the measured concentrations fell below that value. The mean Cmax, Tmax and T1/2 and AUC of the squalamine ion following squalamine (ENT-01) oral dosing for Stage 2 patients. The PK analyses are only approximate, as the lower limit of the validated concentration range was 0.5 ng/ml.

mouse models of PD = conditions: oral; mice with constipation due to overexpression of human αS (West et al, in preparation); cited from earlier work
[3] = system: IPANs (intrinsic primary afferent neuron); conditions: perfusion through lumen of isolated bowel segment, PD mouse model; cited from earlier work
[4] = systemic administration; into the duodenum through the biliary tract (in mice); cited from earlier work
[5] = prior studies, cited from earlier work
[6] = cited from earlier work

Compound	known pharmacological effects [1]	systemic absorption [2]	gastro-intestinal motility (mouse models of PD)	effect on IPANs of the ENS [3]	clearance and excretion [4]	gastrointestinal motility after intravenous administration ([5]; intravenous)	systemic blood levels, intravenous versus orally administered [5]	well tolerated intravenous dose ([6]; dilactate salt, single and repeat intravenous administration, Phase 1 and Phase 2 trials)	drug related GI toxicology ([6]; published clinical trials, systemic administration)
CC(C)[C@@H](CC[C@@H](C)[C@H]1CC[C@H]2[C@@H]3[C@H](O)C[C@H]4C[C@@H](NCCCNCCCCNCCCN)CC[C@]4(C)[C@H]3CC[C@]12C)OS(=O)(=O)O [Aminosterol 1436, trodusquemine]	reduction in food intake and weight loss	–	–	–	–	–	–	–	–
CC(C)[C@@H](CC[C@@H](C)[C@H]1CC[C@H]2[C@@H]3[C@H](O)C[C@H]4C[C@@H](NCCCNCCCCN)CC[C@]4(C)[C@H]3CC[C@]12C)OS(=O)(=O)O [squalamine]	nausea, vomiting and/or reduced blood pressure	not significantly absorbed into the systemic circulation	stimulates gastro-intestinal motility	excitation of IPANs	cleared by the liver and excreted as the intact molecule	not associated with increased gastrointestinal motility	one thousand-fold greater	at least 300 mg/m^2	has not been reported
